According to PubChem BioAssay (NCI):
“And” between values parts separate entries of the source, which are not always exact repeats. Equal values may be shown once.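 Compound exposure: 48 hours, 5 concentrations, 96-well plates. Here, GI50 denotes the concentration required for 50% inhibition of growth. TGI is the concentration that stops growth completely.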

What was measured:
Assay in all cases: inhibition of tumour cell growth, NCI panel, 48 h; in the data active = GI50 below about 0.43 µM; inactive = the rest
[1] = system: 786-0 renal
[2] = system: A498 renal
[3] = system: HCT-116 colon
[4] = system: HL-60(TB) leukemia
[5] = system: MOLT-4 leukemia
[6] = system: SF-295 CNS
[7] = system: SNB-75 CNS
[8] = system: MDA-MB-231 breast
[9] = system: RPMI-8226 leukemia
[10] = system: DU-145 prostate

CN1NC2(CCCCC2)ON=C1c1ccccc1
> 100 µM: TGI [1] | TGI [2] | TGI [3] | TGI [4] | TGI [5] | TGI [6] | TGI [7]

NC1CCN(c2nc(Nc3cccc(C(F)(F)F)c3)c3c(=O)[nH]ccc3n2)CC1
3.59 µM: TGI [6]
3.6 µM: TGI [8]
3.14 µM: TGI [2]
2.41 µM: TGI [4]
inactive: GI50 [1] 1.24 µM | GI50 [2] 1.64 µM | GI50 [3] 1.09 µM | GI50 [4] 0.603 µM | GI50 [8] 2 µM | GI50 [5] 1.05 µM | GI50 [9] 1.91 µM | GI50 [6] 1.96 µM | GI50 [7] 1.77 µM
2.55 µM: TGI [1]
4.8 µM: TGI [5]
3.19 µM: TGI [7]
2.3 µM: TGI [3]
4.84 µM: TGI [9]

O=S(=O)(NCC1CCC(CNc2ccc(Cl)cc2)CC1)c1ccc(-c2ccccc2)cc1 (centres undefined)
> 50 µM: TGI [1] | TGI [10] | TGI [3] | TGI [4] | TGI [8] | TGI [9] | TGI [6]
inactive: GI50 [1] > 50 µM | GI50 [10] > 50 µM | GI50 [3] 32.2 µM | GI50 [4] > 50 µM | GI50 [8] 15.7 µM | GI50 [9] 12.5 µM | GI50 [6] > 50 µM

Cn1ncc2c(N)nc(N3CCCCC3)nc21
74.7 µM: TGI [10]
42.9 µM: TGI [2]
> 100 µM: TGI [1] | TGI [3] | TGI [4] | TGI [9] | TGI [6] | TGI [7]
inactive: GI50 [1] 69.3 µM | GI50 [2] 18.5 µM | GI50 [10] 19.2 µM | GI50 [3] 45.3 µM | GI50 [4] 36 µM | GI50 [9] 33.1 µM | GI50 [6] 26.5 µM | GI50 [7] 29.7 µM

COc1cc2c3c(n(CCCNCCN)c(=O)c2cc1OC)-c1cc2c(cc1C3=O)OCO2
3.02 µM: TGI [9]
inactive: GI50 [10] 0.556 µM | GI50 [4] 0.682 µM | GI50 [9] 0.475 µM | GI50 [6] 1.24 µM | GI50 [7] 6.34 µM
0.081 µM: TGI [5]
active: GI50 [1] 0.312 µM | GI50 [3] 0.359 µM | GI50 [8] 0.343 µM | GI50 [5] < 0.0445 µM
3.41 µM: TGI [10]
21.5 µM: TGI [7]
0.986 µM: TGI [3]
20.3 µM: TGI [6]
2.48 µM: TGI [8]
3.66 µM: TGI [4]
2.5 µM: TGI [1]

CN(C)CCCN1c2nc3ccccc3cc2Sc2cc3ccccc3nc21
3.01 µM: TGI [10]
2.08 µM: TGI [9]
2.31 µM: TGI [3] | TGI [5]
2.96 µM: TGI [2]
2.81 µM: TGI [6]
2.5 µM: TGI [1]
inactive: GI50 [1] 1.24 µM | GI50 [2] 1.57 µM | GI50 [10] 1.65 µM | GI50 [3] 1.1 µM | GI50 [4] 1.34 µM | GI50 [8] 1.41 µM | GI50 [5] 0.892 µM | GI50 [9] 0.45 µM | GI50 [6] 1.39 µM
2.75 µM: TGI [8]
2.79 µM: TGI [4]

COc1ccc(C(N)=O)cc1N=NN(C)C
> 100 µM: TGI [1] | TGI [2] | TGI [3] | TGI [4] | TGI [5] | TGI [9] | TGI [6] | TGI [7]

COC1OC(CO)C(O)C(O)C1Br (centres undefined)
> 100 µM: TGI [1] | TGI [2] | TGI [3] | TGI [4] | TGI [5] | TGI [9] | TGI [6]

Cc1c(C(=O)NCCO)[n+](=O)c2cc(Cl)ccc2n1[O-]
> 100 µM: TGI [1] | TGI [2] | TGI [3] | TGI [4] | TGI [5] | TGI [9] | TGI [6] | TGI [7]

CC(=O)OCCOCNC(=S)N/N=C(\C)c1cnc2ccccc2n1
> 100 µM: TGI [1] | TGI [2] | TGI [3] | TGI [5] | TGI [9] | TGI [6] | TGI [7]
80.8 µM: TGI [4]

CC1=C[C@H]2c3c(c(O)c(O)c4oc5ccccc5c(=O)c34)[C@H](c3cc(O)c(O)c4oc5ccccc5c(=O)c34)[C@H]2C(C)(C)C1
inactive: GI50 [1] 1.99 µM | GI50 [2] 0.519 µM | GI50 [10] 1.01 µM | GI50 [4] 3.22 µM | GI50 [8] 2.9 µM | GI50 [5] 0.802 µM | GI50 [6] 0.443 µM | GI50 [7] 0.637 µM
14.4 µM: TGI [10]
6.59 µM: TGI [7]
active: GI50 [3] 0.224 µM
19.1 µM: TGI [8]
10.8 µM: TGI [4]
3.38 µM: TGI [2]
1.75 µM: TGI [3]
24.1 µM: TGI [5]
6.24 µM: TGI [1]
2.28 µM: TGI [6]

C=C=C(CC)C(C(=O)OC)N(CC)CC (centres undefined)
> 100 µM: TGI [1] | TGI [2] | TGI [3] | TGI [4] | TGI [5] | TGI [9] | TGI [6] | TGI [7]

CN(C)C(N)=NC#N
> 100 µM: TGI [1] | TGI [2] | TGI [3] | TGI [4] | TGI [5] | TGI [9] | TGI [6] | TGI [7]

COc1cc2c3c(c1)c1cc(OC)c(OC)cc1c[n+]3CC2
50 µM: TGI [9]
inactive: GI50 [1] 56.2 µM | GI50 [2] > 100 µM | GI50 [10] 40.3 µM | GI50 [3] 40.5 µM | GI50 [4] > 100 µM | GI50 [8] > 100 µM | GI50 [5] 5.16 µM
> 100 µM: TGI [2] | TGI [4] | TGI [8]
50 µM and > 100 µM: TGI [1] | TGI [10] | TGI [3] | TGI [5] | TGI [6]

CCOC(=O)C(CO)c1nc2c([nH]c1=O)c(=O)n(C)c(=O)n2C (centres undefined)
> 100 µM: TGI [1] | TGI [2] | TGI [10] | TGI [3] | TGI [4] | TGI [8] | TGI [9] | TGI [6]

CCC(=O)C(C)C1=Nc2nnc(CCCCCCCc3nnc4n3C(=O)C(C(C)C(=O)CC)=N4)n2C1=O (centres undefined)
> 100 µM: TGI [1] | TGI [2] | TGI [3] | TGI [4] | TGI [5] | TGI [9] | TGI [6] | TGI [7]

CC(=O)O[C@H]1CC[C@@]2(C)C(=CC[C@H]3C4=CC=C(C(C)=O)[C@@]4(C)CCC32)C1 (some centres undefined)
36.9 µM: TGI [3]
> 100 µM: TGI [1] | TGI [2] | TGI [4] | TGI [5] | TGI [9] | TGI [6] | TGI [7]

CC1(C)OC(=O)C=C([O-])O1.CC1(C)OC(=O)C=C([O-])O1.O=S(=O)([O-])c1ccc([O-])c2ncccc12.O=S(=O)([O-])c1ccc([O-])c2ncccc12.[Ti+4]
inactive: GI50 [1] > 100 µM | GI50 [2] > 100 µM | GI50 [3] 41.8 µM | GI50 [4] 34.1 µM | GI50 [5] 47.8 µM | GI50 [9] > 100 µM | GI50 [6] > 100 µM | GI50 [7] > 100 µM
> 100 µM: TGI [1] | TGI [2] | TGI [3] | TGI [4] | TGI [5] | TGI [9] | TGI [6] | TGI [7]

CC(=O)OC1CC2C(C)(C)C(=O)C=C[C@]2(C)C2CCC3(C)C(c4ccoc4)C(=O)[C@H]4O[C@]43[C@]12C (some centres undefined)
46.6 µM: TGI [5]
47.3 µM: TGI [9]
> 100 µM: TGI [7]
28.7 µM: TGI [3]
36.8 µM: TGI [2]
42.3 µM: TGI [4]
35.5 µM: TGI [1]
